What was measured:
[1] = system: NF-κB; experiment: NF-κB reporter macrophage luciferase assay (RAW264.7); format: cell-based, murine; details: RAW264.7 3x-κB-luc; LPS 10/100 ng/ml 2 hours; different doses (FIG. 7)
Protocol: NF-κB signaling activation was assessed by luciferase activity assay. RAW264.7 cells stably transfected with the 3×-κB-luc plasmid (DNA construct containing three NF-κB sites from the Ig κ light chain promoter coupled to the gene encoding firefly luciferase) were grown in DMEM medium supplemented with 10% heat-inactivated fetal bovine serum, penicillin (100 U/ml), streptomycin (100 μg/ml), L-glutamine (2 mM). Cells were seeded in F-bottom 96-well […] metabolites at different concentrations (6-BT 0,1-100 μM, LysoPC(20:0) 1-10 μM, 16:0-18:2 PE 1-50 μM, MA-GPC 1-100 μM). Afterwards, cells were lysed with 25 μl/well 1×passive lysis buffer and firefly luciferase activity was measured by LUCIFERASE® Assay System (Promega, E1500) on a GLOMAX @-Multi Detection System (Promega).

[2] = system: murine bone marrow-isolated monocytes or bone marrow-derived macrophages; experiment: In vitro stimulation of murine monocytes / bone marrow-derived macrophages, cytokine ELISA; format: cell-based; details: for cytokine secretion by monocytes: murine monocytes CD11b+ activated with LPS (10 μg/ml) for 24 hours, TLR4 stimulation (FIG. 8)
Protocol: Naïve bone marrow monocytes were isolated from BM cells. Briefly, hind legs were removed from 3 mice, cleaned from surrounding muscles. The femur and tibia bones were trimmed at their extremities, the BM content was flushed out with cold PBS using a 10 ml syringe and a 25G needle and filtered through a 40 μm strainer. Red blood cells (RBC) were lysed with 1× RBC lysis buffer (Biolegend) for 5 min. on ice. CD11b+ monocytes were further purified by positive selection using a cocktail of CD11 b magnetic beads (Miltenyi Biotec, #130-049-601) and magnetizing MS columns (Miltenyi Biote) according to the manufacturer's instructions. Subsequently, monocytes were seeded in F-bottom 96-well plates at 1×10^5 cells per well in RPMI1640 supplemented with 10% heat-inactivated fetal bovine serum, penicillin (100 U/ml), streptomycin (100 μg/ml), L-glutamine (2 mM) […]. Monocytes were activated with 10 μg/ml LPS (Sigma-Aldrich) and subjected to treatment with 6-BT (10/100 μM), LysoPC(20:0) (10/50 μM), MA-GPC (10/50/100 μM), or appropriate vehicle. Cells were kept in a final volume of 200 μl/well for 24 hours, after which supernatant was harvested and stored at −80° C.
Bone marrow-derived macrophages (BMDM) and DC (BMDC) were obtained by differentiating freshly isolated BM cells from femur and tibia bones (as above described) of C57/B16 mice (N=3 per experiment). For BMDM, BM cells were seeded at 3×10^6 cells per 10 cm dish and cultured for 7 days in 12 ml RPMI1640 medium with 20% fetal bovine serum, 30% L-929 cell conditioned media, as source of murine macrophage colony-stimulating factor (M-CSF). For BMDC, BM cells were seeded at 0.5×10^6/ml cells in 25 ml in 10 cm dishes and cultured for 7 days in presence of GM-CSF in 5% FBS-RPMI1640 medium. After differentiation, BMDM/DCs were harvested, counted and seeded at a density of 1×10^5 cells per well in a F-bottom 96-well plate and left to adhere for 20 hours before experiments were performed. Macrophages were activated with 10 μg/ml polyinosinic-polycytidylic acid poly(I.C) (InvivoGen) for 24 hours in presence or not of 6-BT (10/100 μM), LysoPC(20:0) (10/50 μM), or MA-GPC (10/50/100 μM) in a final volume of 200 μl/well. At the end of the assay, supernatant was harvested and stored at −80° C.
(§1) Specific ELISAs (R&D Systems) were utilized to measure the concentration of TNFα, IFNβ, and IFNγ in cell supernatant of murine monocytes, macrophages ad T cells, respectively, according to the manufacturer's instructions. The concentration of insulin after 24-hour treatment with metabolites or after GSIS were determined using Rat insulin ELISA (Mercodia) according to the manufacturer's instructions. GSIS was calculated by subtracting the concentration of insulin at 1 mM glucose to the insulin rate at 22 mM glucose.
Here, murine bone marrow-isolated monocytes (Christ A., Western Diet Triggers NLRP3-Dependent Innate Immune Reprogramming. Cell 2018) or bone marrow-derived macrophages (Swanson K V, A noncanonical function of cGAMP in inflammasome priming and activation. JEM 2017) were exposed for 24 hours to the indicated concentrations of 6-BT (10-100 μM) in presence or not of 10 μg/ml LPS, 10 μg/ml P3C or 10 μg/ml poly(I.C).

[3] = system: murine CD4+ T cells; experiment: In vitro CD4+ T cell activation assay (anti-CD3/anti-CD28); format: cell-based; details: for Th1 responses in CD4 T cells: anti-CD3 & anti-CD28 mAbs, 24 hours (FIG. 11)
Protocol: Primary CD4+ T cells were freshly isolated by negative selection from spleens of C57/B16 mice (N=3 per experiment). Briefly, spleens were smashed in a culture dish and passed twice through a strainer (70 μm and 40 μm, respectively) to obtain a single-cell suspension.
Using the negative selection (CD4+ T Cell Isolation kit, Miltenyi Biotec, #130-10-454). Non-CD4 T cells were depleted by retaining them in LS magnetizing column (Miltenyi Biotec).
Isolated CD4 T cells were cultured in 96-well plates (1×10^5 per well) in RPMI1640 medium supplemented with 10% fetal bovine serum, 100 U/ml penicillin, 100 μg/ml streptomycin, 2 mM L-glutamine. Treatment with the metabolites 6-BT (1/10 μM), LysoPC(20:0) (10/50 μM) or MA-GPC (10/50/100 μM) and activation with 2.5 μg/ml soluble anti-CD3 (145-2C11, eBioscience) and 1 μg/ml soluble anti-CD28 (37.51, eBioscience) antibodies started immediately after seeding in 200 i/well complete RPMI1640 media for a 24-hour period, at the end of which supernatant was harvested and stored at −80° C.
as §1
Particularly in the context of autoimmune diabetes, the activity of T cells is driving disease onset and progression. […] To mimic antigen presentation, murine CD4 T cells (isolated from spleens; Uchimura T., The Innate Immune Sensor NLRC3 Acts as a Rheostat that Fine-Tunes T Cell Responses in Infection and Autoimmunity. Immunity 2019) were activated by monoclonal antibodies against CD3 and CD28 (2.5 and 1 μg/ml, respectively).

[4] = system: INS1E beta cells; experiment: Seahorse XF intracellular metabolism, INS1E beta cells; format: cell-based, rat; details: INS1E beta cells; compared with 6-BT
Text: Lastly, it was investigated whether 6-BT may influence the mitochondrial metabolism of beta cells, which rely on ATP and mitochondrial metabolite production for insulin exocytosis. […] Intracellular metabolism measured using a Seahorse XF Analyzer Uchimura T., The Innate Immune Sensor NLRC3 Acts as a Rheostat that Fine-Tunes T Cell Responses in Infection and Autoimmunity.

| Structure (SMILES) | NFκB pathway activation in macrophages [1] | cytokine secretion by monocytes [2] | Th1 responses in CD4 T cells [3] | type 1 IFN secretion ([2]; PolyI:C for 24 hours, TLR3 stimulation (FIG. 9)) | production of the Th1 cytokine IFNgamma ([3]; CD4 T cells from spleens, anti-CD3 2.5 μg/ml and anti-CD28 1 μg/ml (FIGS. 16, 20)) | effect on intracellular metabolism [4] |
| --- | --- | --- | --- | --- | --- | --- |
| CCCCC/C=C\C/C=C\C/C=C\C/C=C\CCCC(=O)OC[C@@H](O)COP(=O)([O-])OCC[N+](C)(C)C [A-GPC, 1-arachidonoyl-glycero-phosphocholine] | can inhibit NFκB pathway activation | halt cytokine secretion | dampen Th1 responses | – | – | – |
| CCCCC/C=C\C/C=C\C/C=C\C/C=C\CCCC(=O)O[C@H](COC(=O)CCCCCCCCCCCCC)COP(=O)([O-])OCC[N+](C)(C)C [MA-GPC, 1-myristoyl-2-arachidonoyl-glycero-phosphocholine] | can inhibit NFκB pathway activation | halt cytokine secretion | hampers immune responses | impair type 1 IFN secretion | – | – |
| N[C@@H](Cc1c[nH]c2ccccc12)C(=O)O [tryptophan, reference compound] | – | – | – | – | but not tryptophan, exerted inhibitory effect | exerted a different effect than 6-BT |

Reference: patent US12648928B2, “Intervention strategy for prevention or treatment of diabetes mellitus, autoimmune disease, inflammatory disease or cardiovascular disease” (ACADEMISCH MEDISCH CENTRUM, priority 2020, dated 2026)
